Test results published in US20040234517A1, “Compositions and methods for diagnosing and treating asthma or other allergic or inflammatory diseases” (WYETH, priority 2003, published 2004).
Like-named read-outs stand apart in the source and are kept apart here. One block for each molecule: values may come before it.

Columns and labels:
arginase [1] = experiment: arginase activity in internal anal sphincter
arginase [2] = settings: intact cells; cited from earlier work
arginase [3] = experiment: arginase activity of murine macrophages (hydrolysis of L-arginine to L-ornithine); assay type: cell-based; settings: unstimulated murine macrophages
Description: Stimulation of murine macrophages with interferon-gamma and lipopolysaccharide (IFN-gamma+LPS) results in clear expression of an inducible NOS (iNOS) and to an increase in arginase activity.

arginase [4] = settings: read-out: IC50 hydrolysis of L-arginine to L-ornithine; unstimulated murine macrophages (Tenu et al.); cited from earlier work
arginase [5] = settings: IFN-gamma+LPS-stimulated macrophage; cited from earlier work
iNOS = iNOS (Mus musculus, UniProt P29477); settings: cited from earlier work
IL-13 [6] = experiment: lung ARG1 mRNA expression after ovalbumin allergen challenge; assay type: in vivo, Balb/c mice; settings: mouse lung
Protocol: Balb/c mice were immunized by an intraperitoneal (i.p.) injection of 10 μg of OVA (Sigma, St. Louis, Mo.) in 200 μl of PBS on day 0. On days 14 and 25 mice were anesthetized with a mixture of ketamine and xylazine (45 and 8 mg/kg, respectively) and challenged intratracheally with 50 μl of a 1.5% solution of OVA or an equivalent volume of PBS. Mice were injected i.p. either with 100 μl of PBS, hIgG (400 μg/ml) or sIL-13α2-Fc (400 μg/ml) on days 24, 25 and 27. Purification of hIgG was carried according to Urban et al., Immunity 8(2): […], 1998. Lungs were collected and snap frozen for RNA isolation on day 28.
To identify changes in mRNA concentration dependent on IL-13 mediated signal transduction, two of the OVA-challenged mice were treated with three intraperitoneal injections of the soluble IL-13 receptor fusion protein, sIL-13Rα2-Fc, prior to and during the course of the allergic challenge. As control for the Fc-moiety of the receptor fusion protein, two of the OVA-challenged mice were similarly treated with intraperitoneal administration of hIgG. […]
Balb/C-treated and untreated mice were sensitized to OVA, treated with PBS, rIL-13 or sIL13Rα2.Fc as described in FIG. 1. Total lung RNA was isolated and analyzed for ARG1 expression as described in Example 2. The mRNA frequency is expressed as parts per million.

IL-13 [7] = experiment: OVA-challenge asthma model: mucus production and airway hyperresponsiveness; assay type: in vivo, mouse; settings: FIG. 12 legend
Description: It is generally accepted that allergic asthma is initiated by an inappropriate inflammatory reaction to airborne allergens. […] One murine model of asthma involves sensitization of the animal to ovalbumin (OVA) followed by intratracheal delivery of the OVA challenge. […] The cytokine IL-13, expressed by basophils, mast cells, activated T cells and NK cells, plays a central role in the inflammatory response to OVA in mouse lungs. […] Thus, IL-13 mediated signaling is sufficient to elicit all four asthma-related pathophysiological phenotypes and is required for the hypersecretion of mucous and induced AHR in the mouse model.
FIG. 12 is a graphical representation showing that ARG1 mRNA expression increases following direct pulmonary instillation of rIL-13 or intratracheal Ovalbumin allergen challenge. Blockade of IL-13 signaling by administration of sIL13Rα2.Fc inhibits 67% of induced Arg1 mRNA expression. Blockade of IL-13 using the soluble receptor sIL13Rα2.Fc inhibits the allergen induced mucus production and airway hyperresponsiveness (AHR).

IL-13 [8] = settings: mouse model, background; cited from earlier work

potency relative to L-NOHA in inhibiting arginase activity (arginase [1]): approximately 250 times
Molecule: N[C@@H](CCCCB(O)O)C(=O)O [ABH, 2(S)-amino-6-boronohexanoic acid]

Molecule: NCCC[C@](N)(C(=O)O)C(F)F [DFMO, α-difluoromethylornithine]
effect on the flux of L-arginine through arginase (arginase [2]): inhibitive effect

Molecule: N=C(NO)NCC[C@H](N)C(=O)O [nor-NOHA, N(omega)-hydroxy-L-nor-arginine]
potency relative to L-NOHA (arginase [3]): about 40 fold | IC50 (arginase [4]): 12 µM | IC50 (arginase [5]): 10 µM | substrate or inhibitor for iNOS (iNOS): neither a substrate nor an inhibitor

B1: sIL13Rα2.Fc: soluble IL-13 receptor fusion protein, a soluble IL-13 antagonist (protein)
chain: DTEIKVNPPQDFEIVDPGYLGYLYLQWQPPLSLDHFKECTVEYELKYRNIGSETWKTIITKNLHYKDGFDLNKGIEAKIHTLLPWQCTNGSEVQSSWAETTYWISPQGIPETKVQDMDCVYYNWQYLLCSWKPGIGVLLDTNYNLFYWYEGLDHALQCVDYIKADGQNIGCRFPYLEASDYKDFYICVNGSSENKPIRSSYFTFQLQNIVKPLPPVYLTFTRESSCEIKLKWSIPLGPIPARCFDYEIEIREDDTTLVTATVENETYTLKTTNETRQLCFVVRSKVNIYCSDDGIWSEWSDKQCWEGEDLSKKTLLR
modifications: left off: a dimerising Fc or GST
notes: soluble IL-13 receptor fusion protein, a soluble IL-13 antagonist
inhibition of induced Arg1 mRNA expression (IL-13 [6]): 67% | allergen induced mucus production and airway hyperresponsiveness (AHR) (IL-13 [7]): inhibits | OVA-challenge induced goblet cell mucus synthesis and AHR to acetylcholine (IL-13 [8]): completely blocked
